# Measured values published in patent publication US11229628B2, “TRPA1 and TRPV4 inhibitors and methods of using the same for organ-specific inflammation and itch” (Duke University, priority 2015, dated 2022).
# Entries after “also recorded” stand apart in the source; their conditions may differ.
# What was measured:
# [1] = system: primary mouse epidermal keratinocytes (1° MK); experiment: UVB-evoked Ca++ signaling in primary mouse keratinocytes (fluo-4 imaging); assay type: cell-based
# Experimental: Ca++ imaging of 1° MK was conducted following routine procedures. For UVB stimulation, a customized device was built. The system comprised a printed circuit board for electrical interconnects and mechanical support and an ultraviolet light-emitting diode (UV LED).
# The operating wavelength was 295 nm (FIG. 2A), with a full-width half-max of 12 nm. The optical power was 500 mW. The focal point was aimed at the plane of the upper surface of the quartz coverslip, which was used to minimize UV absorption along the optical path towards the cells (FIG. 2A-C). The optical intensity at the focal point was estimated to be 150 mW/mm^2.
# Ca++ imaging of mouse 1° MK in response to chemical activation of TRPV4 was conducted after loading with 2 μM fura2-AM, following a ratiometric Ca2+ imaging protocol with 340/380 nm […] for dual excitation. Ratios of emissions were acquired at 0.5 Hz. ΔR/R0 was determined as the fraction of the increase of a given ratio over baseline ratio, divided by baseline ratio. For stimulation of cells with UVB, where fura-2 was not suitable because of the proximity of stimulation with 340/380 nm and 295 nm, 2 μM fluo4-AM was used instead. Ca++ imaging was carried out at 488 nm excitation, acquisition of emissions at 0.5 Hz, expressed as ΔF/F0. In the custom-built UV optical system, UV LEDs were capped with a ball lens, a transparent optical window in the shape of a hemispherical lens (FIG. 2B). The LED output optical beam focused at 15-20 mm from the lens, with a spot diameter of approximately 1.5˜2.0 mm (FIG. 2C). […] The thermal equilibration stage was set for physiological temperature.
# To further dissect the underlying mechanisms involved, we built a customized device for specific and narrow-band UVB stimulation of primary mouse epidermal keratinocytes (1° MK) cultured in vitro (FIG. 6A-B and FIG. 2A-D). This allowed use of the Ca++ sensitive dye, fluo-4, and assessment of 1° MK's Ca++ dynamics following UVB exposure (FIG. 6B). The elicited Ca++ signal was obliterated by a UV-refracting glass coverslip, underscoring the strict dependence of the calcium response on UVB (FIG. 6C and FIG. 2A).
# ET1 secretion by 1° MK = experiment: ET1 secretion by non-stimulated 1° MK (ELISA of supernatant); assay type: cell-based, mouse
# Experimental: FIG. 8: Central role for KC TRPV4 in UVB-evoked Ca^++ signaling and nocifensive behavior—ET1-related supplementary findings. (A) Augmentation of GSK101-evoked Ca^++ signaling by ET1. Shown are averaged Ca^++ measurements (fura-2) in response to 5 nM GSK101. […] (B) ET1 secretion by non-stimulated 1° MK depends on TRPV4 and PLC. Shown are relative ET1 concentrations (determined by ELISA, pg/mL; vehicle-treated and WT control normalized to 100) in supernatant of non-stimulated 1° MK. Note the clear dependence on TRPV4, as indicated by a 50% reduction in Trpv4^−/− 1° MK. […] In addition, PLC-inhibitor robustly affects ET1 secretion in WT and Trpv4^−/− 1° MK. (C) ET1 expression by UVB-exposed 1° MK depends on TRPV4 and PLC—immunocytochemistry. Shown is specific ET1 immunolabeling in 1° MK, exposed to UVB using the UVB-LEDs, as for Ca^++ imaging. Use of the UVB-LED device precluded application of a ET1 ELISA, only irradiated cells could be examined. […] (D) ET1 expression by UVB-exposed 1° MK depends on TRPV4 and PLC—quantification of immunocytochemistry.
# We tested whether UVB causes ET1 upregulation in a TRPV4-dependent manner. Given the exquisite wave-length dependence of ET1 expression in 1° MKs, we resorted to the UVB-LED device as for Ca++ imaging (FIG. 6A and FIG. 2A-D). […] Consistent with its effects on UVB-evoked Ca++ transients, PLC-inhibitor U73122 also dampened ET1 expression. […] This leads to TRPV4-dependent Ca++ signaling, which in turn amplifies ET1 signaling in a paracrine/autocrine fashion.
# [2] = system: periostin secretion by keratinocytes; experiment: Periostin secretion by keratinocytes in response to histamine; assay type: cell-based
# Text: As detailed in the Examples, secretion of periostin (93 kDa protein) by keratinocytes in response to histamine exposure is dependent on TRPV4. […] Periostin has a role in chronic allergic skin inflammation and also pathologic-fibrotic remodeling of the skin. Histamine activates TRPV4 channels via specific activation of histamine H1R-receptors in keratinocytes. This TRPV4-dependent calcium influx regulates release of periostin from keratinocytes. In terms of fibrotic tissue remodeling of organs, TRPV4 channels expressed by fibroblasts may have a role in lung fibrosis evoked by bleomycin, which may relate to fibroblasts elsewhere, including skin fibroblasts and synovial fibroblasts. Inhibitors as detailed herein may potently block TRPV4 activation in keratinocytes and also skin fibroblasts. Based on the above signaling mechanisms, this will attenuate and prevent fibrotic responses in the skin, also chronic skin-remodeling tissue responses mediated by endogenous pathogenetic mediator molecules such as periostin. As for synovia of the joint, one response to joint trauma is development of synovial fibrosis and contracture. Synoviocytes, synovial fibroblasts and infiltrating inflammatory cells may have roles in this maladaptive response, as all of these cells are known to express TRPV4. […]
structure (smiles),measurement,setting,value
CN(CCc1ccc(Nc2nc(-c3cccnc3)cs2)cc1)Cc1ccccc1 [GSK205],ET1-augmented UVB-evoked Ca++ signaling,[1]; UVB and ET1 co-exposure,greatly diminished
same,UVB-evoked Ca++ signaling,"[1]; fluo-4 ΔF/F0, GSK205 20 μM",very similar response to that of Trpv4−/− 1° MK; also recorded: strongly down-regulated; also recorded: significant attenuation
same,ET1 secretion by non-stimulated 1° MK,ET1 secretion by 1° MK,significant down-regulation
same,secretion of periostin by histamine-stimulated keratinocytes,[2],completely eliminated
